This note sets out measurements from patent US9464120B2, “Compositions for treatment of celiac disease” (ImmusanT, Inc., priority 2008, dated 2016).

Series [1] deals with gluten peptide-specific T cells in PBMC from HLA-DQ2+ celiac disease donors. Put plainly: IFNγ ELISpot of PBMC collected on day 6 after oral gluten challenge. It counts as cell-based, human. The conditions noted are these: for donors with IFNγ ELISpot response: 9 HLA DQ2 celiac disease donors, PBMC day 6 after wheat gluten challenge, 17mer and 33mer at 5 μM; for requirement for deamidation for T cell stimulation / dominance according to the grain consumed: second round libraries; for relative T-cell stimulatory activity: PBMC after wheat challenge, tTG pre-treated or glutamate substituted; for activity relative to α-gliadin p57-73 QE65: pre-treated with tTG or with glutamate at position 9, 25 μg/ml, mean±SEM, n=5 donors; for dominance according to the grain consumed: wheat, barley or rye gluten challenge.

Series [2] is described as follows: Pharmacokinetics after bolus intradermal injection in an adult rat. It counts as in vivo. Particulars: rat, in vivo, 0.9 mg; for half-life: T1/2 half life. The protocol:
To improve their chemical stability and increase resistance to exopeptidases, peptides were synthesised as acetate salts of “capped” N-pyroglutamate, C-amide: NPL001 (SEQ ID NO:228), NPL002 (SEQ ID NO:229) and NPL003 (SEQ ID NO:230) 15mers or 16mers with glutamate at sites predicted to be deamidated by tTG. Indeed, capping extended the half-lives of peptides from 10-12 minutes for free peptides: NPL033, NPL038, and NPL034 (SEQ ID NOs:13, 320 and 321) after bolus intradermal injection of 0.9 mg in 0.1 ml in an adult rat to 26-28 minutes with N-pyroglutamate and C-amidation (SEQ ID NOs:228, 229 and 230) or 19-24 minutes with N-acetylation and C-amidation (SEQ ID NOs:231, 232, and 233), (see Table 4).

Square brackets hold non-standard residues; d marks the D form. Peptide text beside a SMILES is read from it. pGlu = O=C1CC[C@@H](C(=O)O)N1

“15mer encompassing deamidated DQ2-γ-IV: deamidated 15mer encompassing the epitope DQ2-γ-IV SQPEQEFPQ reported for intestinal T cell clones [reference compound]”: in series [1], the “donors with IFNγ ELISpot response” value is reported as “One”.

For the compound `CC[C@H](C)[C@H](NC(=O)[C@@H]1CCCN1C(=O)[C@H](CCC(N)=O)NC(=O)[C@H](CCC(=O)O)NC(=O)[C@@H]1CCCN1C(=O)[C@@H]1CCC(=O)N1)C(=O)N1CCC[C@H]1C(=O)N[C@@H](CCC(=O)O)C(=O)N[C@@H](CCC(N)=O)C(=O)N1CCC[C@H]1C(=O)N[C@@H](CCC(N)=O)C(=O)N1CCC[C@H]1C(=O)N[C@@H](Cc1ccc(O)cc1)C(=O)N1CCC[C@H]1C(=O)N[C@@H](CCC(N)=O)C(=O)N[C@@H](CCC(N)=O)C(N)=O` [NPL003, pyroEPEQPIPEQPQPYPQQ-amide] ([pGlu]PEQPIPEQPQPYPQQ-NH2), the half-life in series [2] fell in the range of 26 to 28 min.

`CC(=O)N[C@@H](CCC(N)=O)C(=O)N[C@@H](CC(C)C)C(=O)N[C@@H](CCC(N)=O)C(=O)N1CCC[C@H]1C(=O)N[C@@H](Cc1ccccc1)C(=O)N1CCC[C@H]1C(=O)N[C@@H](CCC(N)=O)C(=O)N1CCC[C@H]1C(=O)N[C@@H](CCC(=O)O)C(=O)N[C@@H](CC(C)C)C(=O)N1CCC[C@H]1C(=O)N[C@@H](Cc1ccc(O)cc1)C(=O)N1CCC[C@H]1C(=O)N[C@@H](CCC(N)=O)C(=O)N1CCC[C@H]1C(=O)N[C@@H](CCC(N)=O)C(N)=O` [NPL030, Ac-QLQPFPQPELPYPQPQ-amide] (Ac-QLQPFPQPELPYPQPQ-NH2): in series [2], the “AUC area under the curve (bioavailability)” value (“AUC area under the curve” below) is “AUC 43474”, the T1/2 half life result was “T1/2 19.4 minutes” and the half-life was 19 to 24 min.

As for `CC(=O)N[C@@H](CCC(N)=O)C(=O)N[C@@H](CCC(N)=O)C(=O)N1CCC[C@H]1C(=O)N[C@@H](Cc1ccccc1)C(=O)N1CCC[C@H]1C(=O)N[C@@H](CCC(N)=O)C(=O)N1CCC[C@H]1C(=O)N[C@@H](CCC(=O)O)C(=O)N[C@@H](CCC(N)=O)C(=O)N1CCC[C@H]1C(=O)N[C@@H](Cc1ccccc1)C(=O)N1CCC[C@H]1C(=O)N[C@@H](Cc1c[nH]c2ccccc12)C(=O)N[C@@H](CCC(N)=O)C(=O)N1CCC[C@H]1C(N)=O` [NPL031, Ac-QQPFPQPEQPFPWQP-amide] (Ac-QQPFPQPEQPFPWQP-NH2), in series [2], the “AUC area under the curve” value is given as “AUC 80263”, the T1/2 half life result is recorded as “T1/2 22.9 minutes” and the half-life was 19 to 24 min.

For `CC[C@H](C)[C@H](NC(=O)[C@@H]1CCCN1C(=O)[C@H](CCC(N)=O)NC(=O)[C@H](CCC(=O)O)NC(=O)[C@@H]1CCCN1C(=O)[C@H](Cc1ccccc1)NC(C)=O)C(=O)N1CCC[C@H]1C(=O)N[C@@H](CCC(=O)O)C(=O)N[C@@H](CCC(N)=O)C(=O)N1CCC[C@H]1C(=O)N[C@@H](CCC(N)=O)C(=O)N1CCC[C@H]1C(=O)N[C@@H](Cc1ccc(O)cc1)C(=O)N1CCC[C@H]1C(=O)N[C@@H](CCC(N)=O)C(=O)N[C@@H](CCC(N)=O)C(N)=O` [NPL032, Ac-FPEQPIPEQPQPYPQQ-amide] (Ac-FPEQPIPEQPQPYPQQ-NH2), in series [2], the “AUC area under the curve” value was “AUC 8206”, the T1/2 half life entry is “T1/2 12.5 minutes” and the half-life lay within 19 to 24 min.

Regarding `CC(C)C[C@H](NC(=O)[C@H](CCC(=O)O)NC(=O)[C@@H]1CCCN1C(=O)[C@H](CCC(N)=O)NC(=O)[C@@H]1CCCN1C(=O)[C@H](Cc1ccccc1)NC(=O)[C@@H]1CCCN1C(=O)[C@H](CCC(N)=O)NC(=O)[C@@H](N)CC(C)C)C(=O)N1CCC[C@H]1C(=O)N[C@@H](Cc1ccc(O)cc1)C(=O)N1CCC[C@H]1C(=O)N[C@@H](CCC(N)=O)C(=O)N1CCC[C@H]1C(=O)N[C@@H](CCC(N)=O)C(=O)O` [NPL033, LQPFPQPELPYPQPQ] (H-LQPFPQPELPYPQPQ-OH), in series [2], the “AUC area under the curve” value was “AUC 2618” and the half-life fell in the range of 10 to 12 min.

In series [2], `CC[C@H](C)[C@H](NC(=O)[C@@H]1CCCN1C(=O)[C@H](CCC(N)=O)NC(=O)[C@H](CCC(=O)O)NC(=O)[C@@H]1CCCN1C(=O)[C@@H](N)Cc1ccccc1)C(=O)N1CCC[C@H]1C(=O)N[C@@H](CCC(=O)O)C(=O)N[C@@H](CCC(N)=O)C(=O)N1CCC[C@H]1C(=O)N[C@@H](CCC(N)=O)C(=O)N1CCC[C@H]1C(=O)N[C@@H](Cc1ccc(O)cc1)C(=O)N1CCC[C@H]1C(=O)N[C@@H](CCC(N)=O)C(=O)N[C@@H](CCC(N)=O)C(=O)O` [NPL034, FPEQPIPEQPQPYPQQ] (H-FPEQPIPEQPQPYPQQ-OH) gave a half-life of 10 to 12 min.

Consider `NC(=O)CC[C@H](NC(=O)[C@@H]1CCCN1)C(=O)N[C@@H](CCC(N)=O)C(=O)N1CCC[C@H]1C(=O)N[C@@H](Cc1ccccc1)C(=O)N1CCC[C@H]1C(=O)N[C@@H](CCC(N)=O)C(=O)N1CCC[C@H]1C(=O)N[C@@H](CCC(=O)O)C(=O)N[C@@H](CCC(N)=O)C(=O)N1CCC[C@H]1C(=O)N[C@@H](Cc1ccccc1)C(=O)N1CCC[C@H]1C(=O)N[C@@H](Cc1c[nH]c2ccccc12)C(=O)N[C@@H](CCC(N)=O)C(=O)N1CCC[C@H]1C(=O)O` [NPL038, PQQPFPQPEQPFPWQP] (H-PQQPFPQPEQPFPWQP-OH), for which, in series [2], the “AUC area under the curve” value is “AUC 22393”, the T1/2 half life result is on record as “T1/2 13.2 minutes” and the half-life fell in the range of 10 to 12 min.

As for GQGQSGYYPTSPQQSG (W29), in series [1], the “requirement for deamidation for T cell stimulation” value (from here on “requirement for deamidation”) is “Exceptions to the requirement for deamidation”.

For “LQLQPFPQPELPYPQPELPYPQPELPYPQPQPF (deamidated alpha2-gliadin 56-88) [33mer, reference compound]”, the “donors with IFNγ ELISpot response” value in series [1] is on record as 7 donors.

In the case of PGQGQSGYYPTSPQQS (W24), the “requirement for deamidation” value in series [1] is reported as “Exceptions to the requirement for deamidation”.

Regarding “PQPQPFLPELPYPQPQS (gluten derived peptide) [SEQ ID NO:26]”, the “relative T-cell stimulatory activity” value in series [1] is on record as “almost as active as 17mers encompassing DQ2-α-II”.

Turning to “PQPQPFLPQLPYPQPQS (gluten derived peptide) [W09]”, the “relative T-cell stimulatory activity” value in series [1] was “almost as active as 17mers encompassing DQ2-α-II”.

For “PQQPFPQPELPFPQQSE (deamidated AAG17702 (141-157)) [SEQ ID NO:29]”, in series [1], the “activity relative to α-gliadin p57-73 QE65” value was determined as 32±6%.

Regarding PQQPFPQPQLPFPQQSE (AAG17702 (141-157)), the “activity relative to α-gliadin p57-73 QE65” value in series [1] was 32±6%.

For the compound PQQPIPEQPQPYPQQP (B08-E7), in series [1], the “dominance according to the grain consumed” value (from here on “dominance according”) is on record as “only after barley gluten challenge”.

As to QGQPGYYPTSPQQIGQ (W22), in series [1], the “requirement for deamidation” value is on record as “Exceptions to the requirement for deamidation”.

Consider QGQQGYYPISPQQSGQ (W21), for which the “requirement for deamidation” value in series [1] is reported as “Exceptions to the requirement for deamidation”.

Turning to “QLQPFPQPELPYPQPQL (variant of alpha-gliadin p57-73 QE65) [SEQ ID NO:46]”, in series [1], the “donors with IFNγ ELISpot response” value is given as 7 donors.

For “QLQPFPQPELPYPQPQP (gluten derived peptide) [SEQ ID NO:225]”, the “dominance according” value in series [1] is listed as “dominant only after wheat gluten challenge”.

QPEQPFPQPEQPFPWQP (W03-E7): in series [1], the “relative T-cell stimulatory activity” value was “equivalent in bioactivity” and the “dominance according” value is “universal dominant T cell stimulatory peptide in gluten”.

Take “QPFPQQPEQIIPQQ (gluten derived peptide) [SEQ ID NO:323]”: in series [1], the “dominance according” value is given as “only after rye gluten challenge”.

With “QPQQPFPQPEQPFPWQP (Q3 E10 variant) [SEQ ID NO:54]”, the “relative T-cell stimulatory activity” value in series [1] is “optimal immunogenicity”.
